What was measured:
[1] = molecular target: T1, rat P2X3 receptor (Rattus norvegicus, UniProt P49654); assay: P2X3 FLIPR (Fluorometric Imaging Plate Reader) assay; format: cell-based; settings: CHO-K1 cells transfected with rat P2X3, agonist α,β-meATP 1 μM
T1 construct: expressed in transfected cells; host or cells: CHO-K1
T1 sequence (P49654 1-397): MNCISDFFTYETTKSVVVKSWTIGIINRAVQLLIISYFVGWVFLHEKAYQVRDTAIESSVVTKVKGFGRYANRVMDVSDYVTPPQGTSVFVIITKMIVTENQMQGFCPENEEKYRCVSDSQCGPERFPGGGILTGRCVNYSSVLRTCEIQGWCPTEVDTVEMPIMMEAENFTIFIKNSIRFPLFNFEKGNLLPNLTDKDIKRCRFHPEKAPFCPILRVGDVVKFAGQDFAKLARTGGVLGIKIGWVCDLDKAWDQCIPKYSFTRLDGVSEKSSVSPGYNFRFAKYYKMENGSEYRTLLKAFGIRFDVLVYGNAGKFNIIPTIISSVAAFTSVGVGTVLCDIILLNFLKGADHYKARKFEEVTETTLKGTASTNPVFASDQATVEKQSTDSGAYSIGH
Method: P2X3/P2X2/3 FLIPR (Fluorometric Imaging Plate Reader) Assay
CHO-K1 cells were transfected with cloned rat P2X3 or human P2X2/3 receptor subunits and passaged in flasks. 18-24 hours before the FLIPR experiment, cells were released from their flasks, centrifuged, and resuspended in nutrient medium at 2.5×10^5 cells/ml. The cells were aliquoted into black-walled 96-well plates at a density of 50,000 cells/well and incubated overnight in 5% CO2 at 37° C. On the day of the experiment, cells were washed in FLIPR buffer (calcium- and magnesium-free Hank's balanced salt solution, 10 mM HEPES, 2 mM CaCl2, 2.5 mM probenecid; FB). […]
Test compounds (dissolved in DMSO at 10 mM and serially diluted with FB) or vehicle were added to each well (25 μl of a 4× solution) and allowed to equilibrate for 20 minutes at room temperature. The plates were then placed in the FLIPR and a baseline fluorescence measurement (excitation at 488 nm and emission at 510-570 nm) was obtained for 10 seconds before a 100 μl/well agonist or vehicle addition. […] Fluorescence was measured for an additional 2 minutes at 1 second intervals after agonist addition. A final addition of ionomycin (5 μM, final concentration) was made to each well of the FLIPR test plate to establish cell viability and maximum fluorescence of dye-bound cytosolic calcium. […]

Row | melting point | IC50 [1] | SMILES
1 | 58 to 60.3 °C | – | CCCc1nnnn1-c1cc(C(=O)N[C@@H](C)CO)cc(-c2ccc(Cl)cc2F)c1 [Example 742, 4′-Chloro-2′-fluoro-5-(5-propyl-tetrazol-1-yl)-biphenyl-3-carboxylic acid ((S)-2-hydroxy-1-methyl-ethyl)-amide]
2 | – | ~1.58 nM | Cc1ccc(-c2cc(C(=O)N[C@@H](C)CO)cc(-n3nnnc3CC(C)C)c2)cc1 [5-(5-isobutyl-tetrazol-1-yl)-4′-methyl-biphenyl-3-carboxylic acid ((S)-2-hydroxy-1-methyl-ethyl)-amide]
3 | 52 to 55 °C | – | CCCc1nnnn1-c1cc(C(=O)NCc2cnc(C)cn2)cc(-c2ccc(Cl)cc2F)c1 [Example 741, 4′-Chloro-2′-fluoro-5-(5-propyl-tetrazol-1-yl)-biphenyl-3-carboxylic acid (5-methyl-pyrazin-2-ylmethyl)-amide]

From patent US7595405B2, “Tetrazole-substituted arylamides as P2X3 and P2X2/3 antagonists” (Roche Palo Alto LLC, priority 2006, dated 2009)
